Measurements: ChEMBL document CHEMBL1146522, “Two new xanthone derivatives from the algicolous marine fungus Wardomyces anomalus” (2003)
The source made the active and inactive calls. No cut-off for these calls is given here.

Tests used:
[1] = Antioxidant activity assessed as inhibition of peroxidation of linolenic acid at 7.4 ug/mL by TBARS assay; assay type: functional
[2] = Antioxidant activity assessed as inhibition of peroxidation of linolenic acid at 37 ug/mL by TBARS assay; assay type: functional
[3] = system: Radical scavenging activity; assay: Antioxidant activity assessed as DPPH radical scavenging activity at 25 ug/mL; assay type: functional
[4] = system: Radical scavenging activity; assay: Antioxidant activity assessed as DPPH radical scavenging activity at 50 ug/mL; assay type: functional
[5] = system: Radical scavenging activity; assay: Antioxidant activity assessed as DPPH radical scavenging activity at 100 ug/mL; assay type: functional
[6] = system: Radical scavenging activity; assay: Antioxidant activity assessed as DPPH radical scavenging activity at 500 ug/mL; assay type: functional
[7] = target: Tyrosine-protein kinase Lck (Homo sapiens) (UniProt P06239); assay: Inhibition of p56-LCK assessed as residual enzyme activity at 200 ug/mL
[8] = target: Human immunodeficiency virus type 1 reverse transcriptase (Human immunodeficiency virus 1) (UniProt Q72547); assay: Inhibition of HIV1 reverse transcriptase assessed as residual enzyme activity at 66 ug/mL
Escherichia coli = assay: Antibacterial activity against Escherichia coli 50 ug/disk by agar diffusion method; assay type: functional, organism-based
Priestia megaterium = assay: Antibacterial activity against Bacillus megaterium 50 ug/disk by agar diffusion method; assay type: functional
Microbotryum violaceum = assay: Antifungal activity against Microbotryum violaceum 50 ug/disk by agar diffusion method; assay type: functional
[9] = system: Aspergillus pseudoglaucus; assay: Antifungal activity against Eurotium repens 50 ug/disk by agar diffusion method; assay type: functional
Mycotypha microspora = assay: Antifungal activity against Mycotypha microspora 50 ug/disk by agar diffusion method; assay type: functional, organism-based
[Chlorella] fusca = Antimicrobial activity against Chlorella fusca 50 ug/disk by agar diffusion method; assay type: functional, organism-based; details: Scenedesmus fuscus

Chain of Tyrosine-protein kinase Lck (Homo sapiens) (P06239 2-509 limits assumed): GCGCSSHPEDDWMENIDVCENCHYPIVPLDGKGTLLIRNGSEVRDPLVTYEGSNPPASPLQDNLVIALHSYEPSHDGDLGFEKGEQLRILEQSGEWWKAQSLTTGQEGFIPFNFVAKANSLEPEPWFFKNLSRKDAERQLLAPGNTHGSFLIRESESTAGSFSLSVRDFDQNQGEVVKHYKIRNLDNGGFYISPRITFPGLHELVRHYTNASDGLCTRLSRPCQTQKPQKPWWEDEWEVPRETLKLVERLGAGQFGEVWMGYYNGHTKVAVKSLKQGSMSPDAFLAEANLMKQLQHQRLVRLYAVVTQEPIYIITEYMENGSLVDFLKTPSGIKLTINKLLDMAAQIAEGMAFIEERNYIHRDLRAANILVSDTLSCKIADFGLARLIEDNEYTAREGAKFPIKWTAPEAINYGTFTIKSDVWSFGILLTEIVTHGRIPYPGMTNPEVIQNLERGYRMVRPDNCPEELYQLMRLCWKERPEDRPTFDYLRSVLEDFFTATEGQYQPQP

SMILES | inhibition [1] | inhibition [2] | Activity [3] | Activity [4] | Activity [5] | Activity [6] | Activity [7] | Activity [8] | Activity (Escherichia coli) | Activity (Priestia megaterium) | Activity (Microbotryum violaceum) | Activity [9] | Activity (Mycotypha microspora) | Activity ([Chlorella] fusca) | inhibition zone (IZ) (Microbotryum violaceum) | inhibition zone (IZ) (Priestia megaterium) | inhibition zone (IZ) [9]
Cc1cc(C(C)(C)C)c(O)c(C(C)(C)C)c1 | 42.8% | 48.5% | 73.4% | 83.1% | 89.1% | 87.8% | – | – | – | – | – | – | – | – | – | – | –
O=C(O)c1ccc(CO)o1 | 2.6% | 7.4% | 30.7% | 53.4% | 87.7% | 97% | 0% | 98.3% | inactive | inactive | inactive | inactive | inactive | inactive | – | – | –
Cc1c(O)c(O)cc2oc3cc(O)cc(O)c3c(=O)c12 [ANOMALIN A] | 17% | 37% | 94.7% | 94.8% | 95.2% | 95.4% | 0% | 82.2% | inactive | inactive | – | – | – | inactive | 1 mm | – | –
Cc1cc(O)cc2oc3cc(O)cc(O)c3c(=O)c12 [NORLICHEXANTHONE] | -7.4% | – | 6.2% | 12.9% | 25.3% | 90.6% | 0% | 82.9% | – | – | – | – | – | inactive | – | 1 mm | 1 mm
